Measurements as given in patent publication EP0745595A1, “3-(3-Aryloxyphenyl)-1-(substituted methyl)-s-triazine-2,4,6-oxo or thiotrione herbicidal agents” (American Cyanamid Company, priority 1995, dated 1996).

Key:
Assay type in all cases: in vivo
[1] = test system: ABUTILON THEOPHRASTI, MEDIC.; assay: Postemergence herbicidal evaluation, ABUTH (Velvetleaf); conditions: rated four to five weeks after treatment, averaged
In short: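 Velvetleaf (Abutilon theophrasti) seedlings were raised in jiffy flats for about two weeks and then sprayed postemergence. The test compound was dispersed in a 50/50 acetone/water mixture containing 0.5% TWEEN®20 and applied through a nozzle operating at 40 psi. Plants were kept on greenhouse benches and rated 0-9 four to five weeks after treatment.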

IPOMOEA SPP. [2] = assay: Preemergence herbicidal evaluation, IPOSS (Morningglory spp.); conditions: four to five weeks after treatment
In short: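 Seeds of morningglory (Ipomoea spp.) were mixed with potting soil and sown on roughly one inch of soil in pint cups for a preemergence herbicide test. The cups were put on greenhouse benches, watered, and maintained by standard greenhouse practice. Four to five weeks after treatment each cup was scored visually on a 0-9 scale against a control.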

ECHINOCHLOA CRUS-GALLI = assay: Preemergence evaluation in the presence of transplanted rice under flooded paddy conditions (Example 43), ECHCG (Barnyard Grass); design: key: visual rating on a 0-9 scale, compared with control; conditions: applied three days after sowing, 25 to 30 days after treatment
Protocol: (§1) Results of herbicide evaluation are expressed on a rating scale (0-9). The scale is based upon a visual observation of plant stand, vigor, malformation, size, chlorosis and overall plant appearance as compared with a control.
(§2) In this example, Deluvian paddy soil (Toyokawa paddy soil) is placed in plastic pots, 100cm^2 x 9 cm in depth. Water is added to the level of the soil surface in the pot and the mixture is paddled 3 cm in depth.
(§3) Pots are then variously sown with monocotyledenous weed seeds and tubers at 0-2 cm in soil depth, as well as transplanted rice plants at the 2.5 leaf stage. The rice plants are transplanted at about 3 cm soil depth. Water is then added to all of the pots to 3 cm deep and kept at a depth of 3 cm for the duration of the test. Test compounds are applied in the manner described in Example 42 three days after transplanting the rice plants and sowing the weed seeds and tubers. The pots are then placed on greenhouse benches and cared for in the conventional manner. Tests are examined at 25 to 30 days after treatment and rated according to the rating system provided in Example 40. The compounds evaluated are reported by compound number given in Example 40.

[3] = test system: ORYZA SATIVA, L. CV. KOSHIHIKARI; assay: Post-transplant rice evaluation under flooded paddy conditions (Example 43), ORYSAK (Rice, Koshihikari); design: key: visual rating on a 0-9 scale, compared with control; conditions: applied three days after transplanting rice, 25 to 30 days after treatment
Protocol: as §1, §2, §3

CHENOPODIUM ALBUM, L. [4] = assay: Preemergence herbicidal evaluation, CHEAL (Lambsquarters, Common); conditions: four to five weeks after treatment
In short: (§4)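 Seeds mixed with potting soil were planted on about one inch of soil in cups, then sprayed with aqueous acetone solution of test compound at about 0.125 to 0.50 kg per hectare. Plants grown under greenhouse conditions; visual rating on a 0-9 scale versus untreated control at 4-5 weeks.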

SAGITTARIA PYGMAEA = assay: Preemergence evaluation in the presence of transplanted rice under flooded paddy conditions (Example 43), SAGPY (Arrowhead (Pygmaea)); design: key: visual rating on a 0-9 scale, compared with control; conditions: applied three days after sowing, 25 to 30 days after treatment
Protocol: as §1, §2, §3

SCIRPUS JUNCOIDES = assay: Preemergence evaluation in the presence of transplanted rice under flooded paddy conditions (Example 43), SCPJU (Bulrush, Japanese); design: key: visual rating on a 0-9 scale, compared with control; conditions: applied three days after sowing, 25 to 30 days after treatment
Protocol: as §1, §2, §3

CHENOPODIUM ALBUM, L. [5] = assay: Postemergence herbicidal evaluation, CHEAL (Lambsquarters, Common); conditions: rated four to five weeks after treatment, averaged
In short: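 Seedlings of common lambsquarters (Chenopodium album) were raised in jiffy flats for roughly two weeks, then sprayed postemergence through a nozzle at 40 psi with test compound dispersed in 50/50 acetone/water containing 0.5% TWEEN®20 surfactant. Plants were kept on greenhouse benches under standard care and rated visually on a 0-9 scale versus controls.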

[…] = Preemergence evaluation in the presence of transplanted rice under flooded paddy conditions (Example 43), MOOVA (Monochoria); conditions: applied three days after sowing, 25 to 30 days after treatment
Protocol: as §1, §2, §3

[6] = test system: CYPERUS SEROTINUS, ROTTB.; assay: Preemergence weed control under flooded paddy conditions, CYPSE (Flatsedge); conditions: preemergence weeds, rated three to four weeks after treatment
In short: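 Seeds or propagules sown in top 0.5 cm of silt loam in undrained containers, flooded 1.5 to 3 cm throughout. Compounds in aqueous/acetone 50/50 v/v pipetted into flood water at about 0.5, 0.25, 0.125 and 0.063 kg/ha. Visual 0-9 rating versus control after three to four weeks in greenhouse.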

[7] = test system: ORYZA SATIVA, L. TEBONNET; assay: Rice tolerance to post-transplant applications under flooded paddy conditions, ORYSAT (Rice, Tebonnet); conditions: post-transplant rice, rated three to four weeks after treatment;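 further: applied to flooded soil surface three days after transplanting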
In short: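 Two ten-day-old Tebonnet rice seedlings were transplanted into silt loam and kept flooded 1.5 to 3 cm deep. Three days after transplanting, the flood surface received the compound in aqueous/acetone 50/50 v/v at about 0.5, 0.25, 0.125 or 0.063 kg/ha. Injury was rated visually on a 0-9 scale versus control after 3-4 weeks.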

[8] = test system: ABUTILON THEOPHRASTI, MEDIC.; assay: Preemergence herbicidal evaluation, ABUTH (Velvetleaf); conditions: four to five weeks after treatment
In short: as §4

CYPERUS DIFFORMIS = assay: Preemergence evaluation in the presence of transplanted rice under flooded paddy conditions (Example 43), CYPDI (Flatsedge, smallflower); design: key: visual rating on a 0-9 scale, compared with control; conditions: applied three days after sowing, 25 to 30 days after treatment
Protocol: as §1, §2, §3

IPOMOEA SPP. [9] = assay: Postemergence herbicidal evaluation, IPOSS (Morningglory spp.); conditions: rated four to five weeks after treatment, averaged
In short: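 Seedlings of morningglory (Ipomoea spp.) were raised in jiffy flats for roughly two weeks. They were then sprayed postemergence through a nozzle at 40 psi with test compound dispersed in 50/50 acetone/water containing 0.5% TWEEN®20 surfactant. Plants were kept on greenhouse benches under standard care and visually rated 0-9 against controls four to five weeks after treatment.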

GALIUM APARINE = assay: Preemergence herbicidal evaluation, GALAP (Galium); conditions: four to five weeks after treatment
In short: as §4

CCOC(=O)Cn1c(=O)[nH]c(=O)n(-c2cc(Oc3ccc(C(F)(F)F)cc3Cl)ccc2[N+](=O)[O-])c1=O [Compound 5, Ethyl 3-{5-[(2-chloro-α,α,α-trifluoro-p-tolyl)oxy]-2-nitrophenyl}tetrahydro-2,4,6-trioxo-s-triazine-1(2H)-acetate]
ABUTH, herbicide rating (0-9) ([1]; Rate 0.125 kg/ha): 9.0 | ABUTH, herbicide rating (0-9) ([1]; Rate 0.250 kg/ha): 9.0 | ABUTH, herbicide rating (0-9) ([1]; Rate 0.500 kg/ha): 9.0 | IPOSS rating (IPOMOEA SPP. [2]; Rate 0.125 kg/ha): 9.0 | IPOSS rating (IPOMOEA SPP. [2]; Rate 0.250 kg/ha): 9.0 | IPOSS rating (IPOMOEA SPP. [2]; Rate 0.500 kg/ha): 9.0 | Herbicidal effect rating, ECHCG (ECHINOCHLOA CRUS-GALLI; 0.032 kg/ha): 8.0 | Herbicidal effect rating, ECHCG (ECHINOCHLOA CRUS-GALLI; 0.063 kg/ha): 8.0 | Herbicidal effect rating, ECHCG (ECHINOCHLOA CRUS-GALLI; 0.125 kg/ha): 8.0 | Herbicidal effect rating, ECHCG (ECHINOCHLOA CRUS-GALLI; 0.250 kg/ha): 9.0 | Herbicidal effect rating, ORYSAK ([3]; 0.032 kg/ha): 0.0 | Herbicidal effect rating, ORYSAK ([3]; 0.063 kg/ha): 0.0 | Herbicidal effect rating, ORYSAK ([3]; 0.125 kg/ha): 2.0 | Herbicidal effect rating, ORYSAK ([3]; 0.250 kg/ha): 2.0 | CHEAL rating (CHENOPODIUM ALBUM, L. [4]; Rate 0.125 kg/ha): 9.0 | CHEAL rating (CHENOPODIUM ALBUM, L. [4]; Rate 0.250 kg/ha): 9.0 | CHEAL rating (CHENOPODIUM ALBUM, L. [4]; Rate 0.500 kg/ha): 9.0 | Herbicidal effect rating, SAGPY (SAGITTARIA PYGMAEA; 0.032 kg/ha): 1.0 | Herbicidal effect rating, SAGPY (SAGITTARIA PYGMAEA; 0.063 kg/ha): 3.0 | Herbicidal effect rating, SAGPY (SAGITTARIA PYGMAEA; 0.125 kg/ha): 9.0 | Herbicidal effect rating, SAGPY (SAGITTARIA PYGMAEA; 0.250 kg/ha): 8.0 | Herbicidal effect rating, SCPJU (SCIRPUS JUNCOIDES; 0.032 kg/ha): 4.0 | Herbicidal effect rating, SCPJU (SCIRPUS JUNCOIDES; 0.063 kg/ha): 6.0 | Herbicidal effect rating, SCPJU (SCIRPUS JUNCOIDES; 0.125 kg/ha): 9.0 | Herbicidal effect rating, SCPJU (SCIRPUS JUNCOIDES; 0.250 kg/ha): 9.0 | CHEAL, herbicide rating (0-9) (CHENOPODIUM ALBUM, L. [5]; Rate 0.125 kg/ha): 8.0 | CHEAL, herbicide rating (0-9) (CHENOPODIUM ALBUM, L. [5]; Rate 0.250 kg/ha): 8.0 | CHEAL, herbicide rating (0-9) (CHENOPODIUM ALBUM, L. [5]; Rate 0.500 kg/ha): 8.0 | Herbicidal effect rating, MOOVA ([…]; 0.032 kg/ha): 9.0 | Herbicidal effect rating, MOOVA ([…]; 0.063 kg/ha): 9.0 | Herbicidal effect rating, MOOVA ([…]; 0.125 kg/ha): 9.0 | Herbicidal effect rating, MOOVA ([…]; 0.250 kg/ha): 9.0 | CYPSE herbicidal rating ([6]; Rate 0.125 kg/ha): 9.0 | CYPSE herbicidal rating ([6]; Rate 0.250 kg/ha): 9.0 | CYPSE herbicidal rating ([6]; Rate 0.500 kg/ha): 9.0 | ORYSAT herbicidal rating (rice tolerance) ([7]; Rate 0.063 kg/ha): 3.0 | ORYSAT herbicidal rating (rice tolerance) ([7]; Rate 0.125 kg/ha): 4.3 | ORYSAT herbicidal rating (rice tolerance) ([7]; Rate 0.250 kg/ha): 5.0 | ORYSAT herbicidal rating (rice tolerance) ([7]; Rate 0.500 kg/ha): 5.3 | ABUTH rating ([8]; Rate 0.125 kg/ha): 9.0 | ABUTH rating ([8]; Rate 0.250 kg/ha): 9.0 | ABUTH rating ([8]; Rate 0.500 kg/ha): 9.0 | Herbicidal effect rating, CYPDI (CYPERUS DIFFORMIS; 0.032 kg/ha): 8.0 | Herbicidal effect rating, CYPDI (CYPERUS DIFFORMIS; 0.063 kg/ha): 9.0 | Herbicidal effect rating, CYPDI (CYPERUS DIFFORMIS; 0.125 kg/ha): 9.0 | Herbicidal effect rating, CYPDI (CYPERUS DIFFORMIS; 0.250 kg/ha): 9.0 | IPOSS, herbicide rating (0-9) (IPOMOEA SPP. [9]; Rate 0.125 kg/ha): 9.0 | IPOSS, herbicide rating (0-9) (IPOMOEA SPP. [9]; Rate 0.250 kg/ha): 9.0 | IPOSS, herbicide rating (0-9) (IPOMOEA SPP. [9]; Rate 0.500 kg/ha): 9.0 | GALAP rating (GALIUM APARINE; Rate 0.125 kg/ha): 9.0 | GALAP rating (GALIUM APARINE; Rate 0.250 kg/ha): 9.0 | GALAP rating (GALIUM APARINE; Rate 0.500 kg/ha): 9.0
